# In ChEMBL document CHEMBL5335837, “Reinvestigation of diphenylmethylpiperazine analogues of pyrazine as new class of Plasmodial cysteine protease inhibitors for the treatment of malaria” (RSC Med Chem, 2024):
# Test system: Plasmodium falciparum
# Experiment: Antimalarial activity against Plasmodium falciparum 3D7 assessed as reduction in parasite growth incubated for 48 to 50 hrs by microplate reader analysis
# Format: functional, organism-based
# Settings: Plasmodium falciparum, 3D7; read-out: IC50
row,Structure (SMILES),IC50
1,COc1cccc(C(c2ccc(Cl)c(Cl)c2)N2CCN(c3cnccn3)CC2)c1O (stereo not drawn),4.62 µM
2,COc1cccc(C(c2ccc(F)cc2)N2CCN(c3cnccn3)CC2)c1O (stereo not drawn),> 12.5 µM
3,Oc1ccccc1C(c1ccc(F)c(F)c1)N1CCN(c2cnccn2)CC1 (stereo not drawn),3.91 µM
4,Oc1ccccc1C(c1ccc(F)c(Cl)c1)N1CCN(c2cnccn2)CC1 (stereo not drawn),4.1 µM
5,COc1cccc(C(c2ccc(F)c(Cl)c2)N2CCN(c3cnccn3)CC2)c1O (stereo not drawn),7.32 µM
6,COc1ccc(C(c2cccc(OC)c2O)N2CCN(c3cnccn3)CC2)cc1 (stereo not drawn),> 12.5 µM
7,COc1cccc(C(c2ccc(C)cc2)N2CCN(c3cnccn3)CC2)c1O (stereo not drawn),> 12.5 µM

# Test system: Plasmodium falciparum
# Experiment: Antimalarial activity against Plasmodium falciparum Dd2 assessed as inhibition of parasite growth incubated for 72 hrs by confocal microscopy analysis
# Format: functional, organism-based
# Settings: Dd2, 72 h
row,Structure (SMILES),IC50
1,FC(F)Oc1ccc(-c2nnc3cncc(OCCc4ccccc4)n23)cc1,0.54 µM

# Test system: Erythrocyte
# Experiment: Hemolytic activity in human RBCs at 100 uM incubated for 2 hrs by microplate reader analysis
# Format: toxicity, cell-based
# Settings: not given
row,Structure (SMILES),Activity
1,COc1cccc(C(c2ccc(Cl)c(Cl)c2)N2CCN(c3cnccn3)CC2)c1O (stereo not drawn),Non-Toxic
2,COc1cccc(C(c2ccc(F)cc2)N2CCN(c3cnccn3)CC2)c1O (stereo not drawn),Non-Toxic
3,Oc1ccccc1C(c1ccc(F)c(F)c1)N1CCN(c2cnccn2)CC1 (stereo not drawn),Non-Toxic
4,Oc1ccccc1C(c1ccc(F)c(Cl)c1)N1CCN(c2cnccn2)CC1 (stereo not drawn),Non-Toxic
5,COc1cccc(C(c2ccc(F)c(Cl)c2)N2CCN(c3cnccn3)CC2)c1O (stereo not drawn),Non-Toxic
6,COc1ccc(C(c2cccc(OC)c2O)N2CCN(c3cnccn3)CC2)cc1 (stereo not drawn),Non-Toxic
7,CCN(CC)CCCC(C)Nc1ccnc2cc(Cl)ccc12 (stereo not drawn) [CHLOROQUINE],Non-Toxic
8,COc1cccc(C(c2ccc(C)cc2)N2CCN(c3cnccn3)CC2)c1O (stereo not drawn),Non-Toxic

# Test system: Plasmodium falciparum
# Experiment: Antimalarial activity against Plasmodium falciparum 3D7 assessed as inhibition of parasite growth incubated for 72 hrs by confocal microscopy analysis
# Format: functional, organism-based
# Settings: 3D7, 72 h
row,Structure (SMILES),IC50
1,FC(F)Oc1ccc(-c2nnc3cncc(OCCc4ccccc4)n23)cc1,0.31 µM

# Test system: Plasmodium falciparum
# Experiment: Antimalarial activity against ring stage Plasmodium falciparum 3D7 infected in human erythrocytes incubated for 48 to 50 hrs by YOYO-1 staining based FACS analysis
# Format: functional, organism-based
# Settings: 3D7, Erythrocyte
row,Structure (SMILES),IC50
1,CCc1nc(N)nc(N)c1-c1ccc(Cl)cc1 [PYRIMETHAMINE],0.015 µM
